This is an account of results in patent publication US10106529B2, “Compounds that modulate intracellular calcium” (CalciMedica, Inc., priority 2011, dated 2018).

The target in one experiment is T1, Orai1/STIM1 (Homo sapiens, UniProt Q96D31).
T1 construct: c-myc (C); expressed in transfected cells; host or cells: HEK-293 cells stably expressing recombinant human STIM1 and Orai1
The experiment can be described thus: Fluorescence-based assay of store-operated calcium entry in Orai1/STIM1 stable cells. The experiment is classed as cell-based. As to conditions: HEK-293 cells stably expressing human STIM1 and Orai1, inhibition of Peak-Basal fluorescence signal after calcium addition; for IC50: read-out: Orai1/STIM1 (IC50, μmol). On the set-up: key to Orai1/STIM1 (IC50, μmol): A, IC50 < 0.6 μM; B, IC50 = 0.6-1.2 μM; C, IC50 > 1.2 μM; — no fit. The text has this: (§1) Fluorescence-based assays are used for screening the compounds described herein, such as compounds of Formulas (I), (IA), (II), (IIA), (III), (IIIA), (IV), (IVA), (V), (VA), (VI), (VIA), (VII), (VIIA), (VIII), (VIIIA), (IX), (IXA), (X), (XI), (XIA), (XII), or (XIIA) which modulate intracellular calcium.
A. Fluorescence-Based Assay of Store-Operated Calcium Entry in Orai1/STIM1 Stable Cells.
Cells stably expressing recombinant human STIM1 and Orai1 are generated by transfecting a human Orai1 expression plasmid (pcDNA3.1-Orai1-cmyc) into HEK-293 cells stably overexpressing human STIM1 (Roos et al. 2005 JCB 169(3): 435-445). Colonies of cells stably expressing both STIM1 and Orai1 proteins are selected and then subcloned by limiting dilution. Cells were cultured at 37° C./6% CO2 in complete medium with 10% FBS and appropriate selection markers.
The day prior to performing the assay Orai1/STIM1 stable cells are plated in 50 μL of complete medium at 90-95% confluence in a 384 well plate. Cells are grown at 37° C./6% CO2 overnight. On the day of the assay, 1.5 μM fluo-4-AM (Invitrogen) in complete medium is added to the cells, which are then incubated for 1 hour at RT. Cells are washed once in Ca^2+-free HBSS (Hank's buffered saline solution) and 35 μl of Ca^2+-free HBSS is added to each well. Test compounds are added to wells in a 10 μL Ca^2+-free HBSS solution, prepared at 4.5× the desired final concentration, and incubated for 30 minutes at RT. The initial baseline fluorescence signal is then measured with a FLIPR^384 (Molecular Devices) plate reader. Calcium entry is initiated by adding 5 μl of 10×CaCl2 (10 mM) in HBSS, and changes in cellular fluorescence are measured with the FLIPR^384 plate reader. In each well, the magnitude of the fluorescence signal as a result of calcium entry into the cell is determined by calculating the difference between the peak fluorescence signal measured after calcium addition and the initial baseline fluorescence signal (designated Peak-Basal). IC50 values are typically calculated as the concentration that inhibited 50% of the Peak-Basal signal.

For a further experiment, the system named is RBL-2H3 cells. Put plainly: Fluorescence-based assay of store-operated calcium entry in RBL-2H3 cells. The experiment is classed as cell-based, rat. As to conditions: Rattus norvegicus, thapsigargin, inhibition of Upslope of fluorescence after calcium addition, read-out: RBL-2H3 (IC50, μmol). How it is done:
as §1
B. Fluorescence-Based Assay of Store-Operated Calcium Entry in RBL-2H3 Cells.
RBL-2H3 cells are obtained from ATCC and maintained in complete medium with 10% FBS at 37° C./6% CO2.
The day prior to performing the assay, RBL-2H3 cells are plated in 50 μL of complete medium in a 384 well plate. Cells are grown at 37° C./6% CO2 overnight and grow to 50-60% confluence by the next day. On the assay day, 1.5 µM Fluo-4-AM dye (Invitrogen) in complete medium is added and incubated for 1 hour at RT. Cells are washed twice in Ca^2+-free HBSS buffer and 35 μL Ca^2+-free HBSS buffer is added to each well. 10 μL of a test compound prepared in a Ca^2+-free HBSS solution at 4.5× of the desired concentration is added to a well and incubated for 5 minutes at RT. 10 μL of thapsigargin prepared in a Ca^2+-free HBSS solution at 5.5× of the desired concentration (5.5 uM) is added to each well and incubated for an additional 25 minutes. The initial baseline fluorescence signal is measured with a FLIPR^384 (Molecular Devices) plate reader. 5 μL of 12× calcium in HBSS (12 mM) is added and changes in cellular fluorescence are measured with the FLIPR^384 plate reader. In each well, the change in the fluorescent signal as a function of time due to calcium entry into the cell is determined by calculating the difference between the fluorescent signal measured 7 seconds after calcium addition and the initial baseline fluorescence signal at time zero (t=0). This parameter is designated Upslope. The IC50 value is calculated as the concentration at which 50% of the Upslope is inhibited.

Where only a bound is given, the exact number is not on record here.

T1 sequence (Q96D31 whole entry): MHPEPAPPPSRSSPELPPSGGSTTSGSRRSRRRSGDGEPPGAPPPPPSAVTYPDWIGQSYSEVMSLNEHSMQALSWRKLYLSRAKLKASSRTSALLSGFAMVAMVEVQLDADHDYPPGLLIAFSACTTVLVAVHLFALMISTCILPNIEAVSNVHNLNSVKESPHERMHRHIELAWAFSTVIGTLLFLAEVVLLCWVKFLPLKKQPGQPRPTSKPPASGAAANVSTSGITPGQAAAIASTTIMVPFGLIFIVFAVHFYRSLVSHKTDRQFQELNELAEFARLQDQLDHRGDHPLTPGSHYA

`Fc1cccc(F)c1CNc1ccc(-c2cc3c(cc2Cl)OC(F)(F)O3)cn1` [Compound 2, 5-(6-chloro-2,2-difluorobenzo[d][1,3]dioxol-5-yl)-N-(2,6-difluorobenzyl)pyridin-2-amine]: the IC50 is 600 to 1200 nM on Orai1/STIM1 and < 600 nM with RBL-2H3 cells.

`Cc1cc2c(cc1-c1ccc(NCc3c(F)cccc3F)nc1)OC(F)(F)O2` [Compound 4, 5-(2,2-difluoro-6-methylbenzo[d][1,3]dioxol-5-yl)-N-(2,6-difluorobenzyl)pyridin-2-amine]: the values for the IC50 at Orai1/STIM1 and in the experiment with RBL-2H3 cells were 600 to 1200 nM and < 600 nM, respectively. With `Cc1cc2c(cc1-c1ccc(NCc3c(F)cccc3F)cn1)OC(F)(F)O2` [Compound 6, 6-(2,2-difluoro-6-methylbenzo[d][1,3]dioxol-5-yl)-N-(2,6-difluorobenzyl)pyridin-3-amine], the IC50 on Orai1/STIM1 and in the experiment with RBL-2H3 cells was < 600 nM throughout. For the molecule `Fc1cccc(CNc2ccc(-c3cc4c(cc3Cl)OC(F)(F)O4)cn2)c1Cl` [Compound 8, 5-(6-chloro-2,2-difluorobenzo[d][1,3]dioxol-5-yl)-N-(2-chloro-3-fluorobenzyl)pyridin-2-amine], the figures for the IC50 on Orai1/STIM1 and in the experiment with RBL-2H3 cells were > 1200 nM and < 600 nM, respectively.

`FC1(F)Oc2cc(Cl)c(-c3ccc(NCc4ccccc4Cl)nc3)cc2O1` [Compound 10, 5-(6-chloro-2,2-difluorobenzo[d][1,3]dioxol-5-yl)-N-(2-chlorobenzyl)pyridin-2-amine]: the IC50 on Orai1/STIM1 was > 1200 nM; with RBL-2H3 cells, < 600 nM. Turning to `FC1(F)Oc2cc(Cl)c(-c3ccc(NCc4ccccc4C(F)(F)F)nc3)cc2O1` [Compound 12, 5-(6-chloro-2,2-difluorobenzo[d][1,3]dioxol-5-yl)-N-(2-(trifluoromethyl)benzyl)pyridin-2-amine], the “Orai1/STIM1 (IC50, μmol)” value on Orai1/STIM1 is on record as “—”. In addition, the IC50 in the experiment with RBL-2H3 cells was < 600 nM.

On to `Fc1ccc(CNc2ccc(-c3cc4c(cc3Cl)OC(F)(F)O4)cn2)c(Cl)c1` [Compound 13], for which the IC50 on Orai1/STIM1 was > 1200 nM; in the experiment with RBL-2H3 cells, < 600 nM.

On to `COc1ccc(F)cc1CNc1ccc(-c2cc3c(cc2Cl)OC(F)(F)O3)cn1` [Compound 14], for which the “Orai1/STIM1 (IC50, μmol)” value on Orai1/STIM1 is on record as “—”. The IC50 with RBL-2H3 cells is < 600 nM. Take `COc1ccccc1CNc1ccc(-c2cc3c(cc2Cl)OC(F)(F)O3)cn1` [Compound 15]: the IC50 on Orai1/STIM1 was > 1200 nM; in the experiment with RBL-2H3 cells, < 600 nM. For the molecule `Fc1cccc(CNc2ccc(-c3cc4c(cc3Cl)OC(F)(F)O4)cn2)c1` [Compound 16], the IC50 on Orai1/STIM1 is 600 to 1200 nM; with RBL-2H3 cells, < 600 nM. `Cc1cc2c(cc1-c1ccc(NCc3c(F)cccc3F)nc1)CCC2` [Compound 17]: the values for the IC50 on Orai1/STIM1 and with RBL-2H3 cells were 600 to 1200 nM and < 600 nM, respectively. Regarding `Cc1ccc(F)cc1CNc1ccc(-c2cc3c(cc2C)CCC3)cn1` [Compound 18], the “Orai1/STIM1 (IC50, μmol)” value at Orai1/STIM1 is given as “—”. Besides, the IC50 in the experiment with RBL-2H3 cells was < 600 nM. As to `Cc1ccccc1CNc1ccc(-c2cc3c(cc2C)OC(F)(F)O3)cn1` [Compound 19], the IC50 at Orai1/STIM1 and in the experiment with RBL-2H3 cells was < 600 nM in each case.

Turning to `Cc1cc2c(cc1-c1ccc(NCc3ccccc3Cl)nc1)OC(F)(F)O2` [Compound 20], the IC50 was > 1200 nM at Orai1/STIM1 and < 600 nM in the experiment on RBL-2H3 cells. For `Cc1cc2c(cc1-c1ccc(NCc3ccccc3F)nc1)OC(F)(F)O2` [Compound 21], the IC50 at Orai1/STIM1 and with RBL-2H3 cells was < 600 nM throughout. Regarding `Cc1cc2c(cc1-c1ccc(NCc3c(F)cccc3Cl)nc1)OC(F)(F)O2` [Compound 22], the IC50 at Orai1/STIM1 is > 1200 nM; in the experiment on RBL-2H3 cells, < 600 nM.

Turning to `Cc1cc2c(cc1-c1ccc(NCc3c(F)cc(F)cc3F)nc1)OC(F)(F)O2` [Compound 24], the IC50 in the experiment on RBL-2H3 cells is < 600 nM. Take `Cc1cc2c(cc1-c1ccc(NCc3c(F)ccc(F)c3F)nc1)OC(F)(F)O2` [Compound 25]: the IC50 in the experiment with RBL-2H3 cells is < 600 nM.

With `Cc1sc(C(F)(F)F)nc1-c1ccc(NCc2ccccc2F)nc1` [Compound 26], in the experiment with RBL-2H3 cells, the IC50 was < 600 nM. The same measure, in the same setting: the figure for `Cc1sc(C(F)(F)F)nc1-c1ccc(NCc2c(F)cc(F)cc2F)nc1` [Compound 27] is < 600 nM.

`Cc1cc2c(cc1-c1cnc(NCc3c(F)cccc3F)nc1)OC(F)(F)O2` [Compound 32, 5-(2,2-difluoro-6-methyl-1,3-benzodioxol-5-yl)-N-[(2,6-difluorophenyl)methyl]pyrimidin-2-amine]: the IC50 in the experiment on RBL-2H3 cells is < 600 nM. `Fc1cccc(F)c1CNc1ccc(-c2nc3c(cc2Cl)OCCO3)cn1` [Compound 45, 5-(7-chloro-2,3-dihydro-[1,4]dioxino[2,3-b]pyridin-6-yl)-N-(2,6-difluorobenzyl)pyridin-2-amine]: the IC50 in the experiment with RBL-2H3 cells is < 600 nM. Regarding `Cc1cc2c(cc1-c1cnc(OCc3c(F)cccc3F)nc1)OC(F)(F)O2` [Compound 62], the IC50 in the experiment on RBL-2H3 cells lay in the range of 600 to 1200 nM. With `Cn1nc(C(F)(F)F)cc1-c1cnc(OCc2c(F)cccc2F)nc1` [Compound 63], in the experiment on RBL-2H3 cells, the IC50 was > 1200 nM. Regarding `Cc1cc2c(cc1-c1ccc(OCc3c(F)cccc3F)nc1)OC(F)(F)O2` [Compound 66], in the experiment on RBL-2H3 cells, the IC50 is < 600 nM. For the molecule `Cn1nc(C(F)(F)F)cc1-c1ccc(OCc2c(F)cccc2F)nc1` [Compound 67], the IC50 in the experiment with RBL-2H3 cells was 600 to 1200 nM. Same read-out and setting: next, `Cn1nc(C(F)(F)F)cc1-c1ccc(NCc2c(F)cc(F)cc2F)cn1` [Compound 87]: < 600 nM. Turning to `CCn1nc(C(F)(F)F)cc1-c1ccc(NCc2ccccc2F)cn1` [Compound 88], in the experiment with RBL-2H3 cells, the IC50 is < 600 nM. On to `CCn1nc(C(F)(F)F)cc1-c1ccc(NCc2c(F)cccc2F)cn1` [Compound 89], for which the IC50 in the experiment with RBL-2H3 cells is < 600 nM. As to `Cn1nc(C(F)(F)F)cc1-c1ncc(NCc2c(F)cccc2F)cc1F` [Compound 91], the IC50 in the experiment on RBL-2H3 cells is < 600 nM.

In the case of `Cn1nc(C(F)(F)F)cc1-c1cnc(NCc2c(F)cccc2F)nc1` [Compound 94, N-(2,6-difluorobenzyl)-5-(1-methyl-3-(trifluoromethyl)-1H-pyrazol-5-yl)pyrimidin-2-amine], the IC50 in the experiment with RBL-2H3 cells was < 600 nM. For `Fc1ccc(C(F)(F)F)c(Oc2ccc(NCc3c(F)cccc3F)nc2)c1` [Compound 133, N-(2,6-difluorobenzyl)-5-(5-fluoro-2-(trifluoromethyl)phenoxy)pyridin-2-amine], the IC50 with RBL-2H3 cells is < 600 nM.

Turning to `CCc1ccccc1Oc1ccc(NCc2c(F)cc(F)cc2F)nc1` [Compound 136], in the experiment on RBL-2H3 cells, the IC50 is > 1200 nM.

Regarding `CCc1ccccc1Oc1ccc(NCc2c(F)cccc2F)nc1` [Compound 137], in the experiment with RBL-2H3 cells, the IC50 was > 1200 nM.

Regarding `Fc1cc(F)c(CNc2ccc(Oc3cc(F)ccc3C(F)(F)F)cn2)c(F)c1` [Compound 138], in the experiment on RBL-2H3 cells, the IC50 is < 600 nM. As to `Fc1ccc(C(F)(F)F)c(Oc2ccc(NCc3c(F)cncc3F)nc2)c1` [Compound 139], the IC50 in the experiment on RBL-2H3 cells is < 600 nM. On the same count and under the same terms, the figure for `Fc1cc(F)c(CNc2ccc(Oc3cc(C(F)(F)F)ccc3C(F)(F)F)cn2)c(F)c1` [Compound 140] is 600 to 1200 nM.

As for `Fc1cccc(F)c1CNc1ccc(Oc2cc(C(F)(F)F)ccc2C(F)(F)F)cn1` [Compound 141], the IC50 in the experiment on RBL-2H3 cells is < 600 nM.
